Test results from patent US8980249B2, “Agonists of growth hormone releasing hormone as effectors for survival and proliferation of pancreatic islets” (University of Miami, priority 2010, dated 2015).
Several values for one entry are separate records, joined by “and”; a condition that tells them apart may be missing. Equal values may be shown once. Entries after “also recorded” stand apart in the source; their conditions may differ. Square brackets hold non-standard residues; d marks the D form. Ends that are not written are not given here. * marks the point of attachment. Agmatine = N=C(N)NCCCCN*; Nle = CCCC[C@H](N)C(=O)O; Orn = NCCC[C@H](N)C(=O)O; Abu = CC[C@H](N)C(=O)O

Columns and labels:
[1] = test system: myocardial infarction (MI); details: in vivo; cited from earlier work
[2] = test system: INS-1 cells; experiment: Cell proliferation of INS-1 insulinoma cells; assay type: cell-based, rat
Description: (§1) Rat insulinoma cells (INS-1) were cultured in RPMI 1640 medium (PAA, Pasching, Austria) supplemented with 2 mM L-glutamine, 10% fetal bovine serum (FBS), 1 mM Na-pyruvate, 50 μM 2-mercaptoethanol and 100 U/ml penicillin-streptomycin (Gibco, Gaithersburg Md.) in a humidified 5% CO2/[…] atmosphere at 37° C. The culture medium was changed every other day. Cells were grown for 72 hrs prior to experimentation. GHRH agonist JI-36 (10^−6-10^−9 M) and GHRH antagonist MIA-602 ([…]) were used for 24-96 hrs, respectively.
(§2) INS-1 cells were grown for 72 hrs prior to experimentation; islets were collected immediately after the isolation procedure and each were divided into three treatment groups: (1) Culture media with vehicle (DMSO) served as control group, (2) Culture media containing GHRH agonist JI-36 (10^−6 M), (3) culture media with JI-36 plus GHRH antagonist MIA-602 (10^−6 M). Media change and addition of the analogues was performed after 24 hrs and 48 hrs in islet cultures and every other day in INS-1 cell cultures.

[3] = test system: INS-1 cells; experiment: Cell apoptosis of INS-1 cells (activity of caspases 3 and 7); assay type: cell-based, rat
Description: as §1, §2

[4] = test system: INS-1 cells; experiment: Ultrastructural analysis of INS-1 cells; assay type: cell-based, rat; details: JI-36 10^−6 M
Description: as §2

[5] = test system: isolated rat islets; experiment: Islet particle number and islet size (islet equivalents) in culture; assay type: cell-based; details: rat islets in culture with JI-36 10^−6 M
Description: Pancreatic islets were isolated from male Wistar rats according to guidelines established by the University of Dresden Institutional Animal Care and Use Committee. Animals were anesthetized by 3% isoflurane; digestion solution (Collagenase V, Sigma-Aldrich, St. Louis, Mo.) was injected in situ via the pancreatic common bile duct. Islets were purified by centrifugation on a discontinuous Ficoll gradient (Mediatech). Purified islets were maintained in culture media (CMRL 1066, Mediatech, USA) supplemented with 10% FBS at 37° C. in a 5% CO2 incubator. Volume and purity were determined by microscopic sizing after staining with dithizone (Sigma-Aldrich, St. Louis, Mo.).
Triplicate samples of 100 to 300 islet particles were stained with dithizone (Sigma-Aldrich, St. Louis, Mo.), which binds zinc ions present specifically in islet β-cells, and sized using an eyepiece reticle and inverted microscope (32). The term islet particle describes an individual islet independent of its size. All islet particles with a diameter >50 μm were divided into classes of 50 μm increments (i.e., 50-100, 100-150, 150-200, etc.) for calculation of islet equivalents (IEQ). Each diameter class was converted into the mean volume of 150-μm diameter islets by a relative conversion factor. These factors allow converting the total islet particle number from any preparation into IEQ. […]

[6] = test system: isolated rat islets; experiment: Immunostaining of islets for insulin and Ki-67; assay type: cell-based; details: 72 hrs in culture with JI-36
[7] = test system: rat islets; experiment: Islet membrane integrity, FDA/PI viability staining; assay type: cell-based; details: 72 hrs in culture, n=4
Description: Small aliquots of islets were transferred in phosphate-buffered saline (PBS) containing Petri dishes. Fluorescein diacetate (FDA) and propidium iodide (PI) were added to the samples at a final concentration of 0.5 and 75 μM, respectively. Using a fluorescence microscope, 100 islets were assessed for cell viability by estimating the percentage of viable cells (green) versus percentage of non-viable cells (red) within each islet. The percentage of viable cells was then calculated (33).

[8] = test system: rat islets; experiment: Static glucose-stimulated insulin secretion; assay type: cell-based
Description: For static insulin secretion in response to glucose challenge, islets were transferred into Petri dishes containing oxygenated Krebs-Ringer bicarbonate buffer (KRB, 137 mM NaCl, 4.7 mM KCl, 1.2 mM KH2PO4, 1.2 mM MgSO4-7H2O, 2.5 mM CaCl2-2H2O, 25 mM NaHCO3, 0.25% BSA) and pre-incubated in 3.3 mM glucose at 37° C. (5% CO2) for 30 min. Groups of 8-10 islets from the equilibration cultures were transferred to fresh oxygen-saturated media containing either 3.3 or 16.7 mM glucose and then incubated an additional 60 min in a 37° C. water bath with gentle shaking. Secreted insulin in the media was measured by ELISA (Millipore, Billerica, Mass.) and values normalized to extracted islet DNA (Quant-iT™ Picogreen, Invitrogen).

[9] = test system: streptozotocin-induced diabetic NOD-SCID mice; experiment: Transplantation of pretreated rat islets beneath the kidney capsule of diabetic mice; assay type: in vivo
Description: NOD-SCID mice (MTZ breed) with induced diabetes were used as islet recipients following guidelines established by the University of Dresden Institutional Animal Care and Use Committee. Diabetes was induced by a single intraperitoneal injection of 180 mg/kg streptozotocin (Sigma-Aldrich, St. Louis, Mo.). Serum glucose was then measured daily using an Ascensia Elite glucometer (Bayer, Burr Ridge, Ill.). Mice were considered diabetic if non-fasting blood glucose (BG) was >350 mg/dL for two or more consecutive days. Rat islet preparations were used for transplantation. Islets from each preparation were divided into two groups, and JI-36 (10^−6 M) or vehicle (DMSO) was added to the culture media. Islets were cultured for 48 hrs prior to transplantation. After culture, samples of 300 IEQ were washed in transplant media (Ringer acetate with 5% glucose and 10% FBS), and transplanted to beneath the left kidney capsule. The animal experiments and housing were in accordance with institutional guidelines and German animal regulations.
The non-fasting blood glucose levels were measured daily during the first week and twice a week thereafter. On day 25, mice were subjected to an intraperitoneal glucose tolerance test (IPGTT). Two days later, grafts were removed. This led to a recurrence of the diabetic state. This proves that restoration and maintenance of normoglycemia was due to islet graft function.
On follow-up, sustained non-fasting blood glucose levels of ≦10 mM (≦180 mg/dl) were defined as “cure”, 10 to 18 mM (180 to 320 mg/dl) as “partial function” of transplanted islets, and levels above 18 mM (>320 mg/dl) as “graft failure”.

[10] = test system: streptozotocin-induced diabetic NOD-SCID mice; experiment: Intraperitoneal glucose tolerance test after islet transplantation; assay type: in vivo
Description: Mice were fasted overnight (at least 6 hrs) before examination. A glucose solution was given at 3 g/kg BW i.p. and blood glucose was recorded before injection and 15, 30, 45, 60, 90 and 120 min following glucose injection. Non-transplanted mice were used as controls and tested concurrently.

[11] = test system: cardiomyocytes; details: in vitro; cited from earlier work
[12] = test system: rat hearts; details: cited from earlier work

(Dat^1, Gln^8, Orn^12,21, Abu^15, Nle^27, Asp^28, Agm^29)hGH-RH(1-29) [JI-38]
cardiac effect following myocardial infarction [1]: favorable cardiac effect, attenuating infarct size

(Dat^1, Thr^8, Orn^12,21, Abu^15, Nle^27, Asp^28, Agm^29)hGH-RH(1-29) ([Dat]ADAIFTTSYR[Orn]VL[Abu]QLSAR[Orn]LLQDI[Nle]D[Agmatine]) [JI-36, synthetic GHRH agonist]
cell proliferation rates (in words) ([2]; 10^−6-10^−9 M, 24-96 hrs): significant and dose-dependent increase | increase in cell proliferation compared to control ([2]; JI-36 10^−6 M, 72 hrs): 50% | most effective concentration for cell proliferation ([2]; tested 10^−6-10^−9 M): 10^−6 M | degree of cell apoptosis (in words) ([3]; 10^−6-10^−9 M, 24-96 hrs, INS-1 cells): significant decrease; also recorded: reduction | reduction of apoptosis (activity of caspases 3 and 7) ([3]; JI-36 10^−6 M, 72 hrs, INS-1 cells): 20% | time of maximal anti-apoptotic effect ([3]; incubation 24-96 hrs): 72 h | most effective concentration for anti-apoptotic effect ([3]; tested 10^−6-10^−9 M, INS-1 cells): 10^−6 M | ultrastructural changes / metabolic state [4]: more active metabolic state; also recorded: metabolic active stimulation state with increased cytoplasm | islet equivalents (IEQ/IP ratio, islet size) versus control ([5]; 24-72 hrs): increased islet size | number of islet particles over time versus control ([5]; up to 72 hrs): no relevant change; also recorded: no difference between treatment group and control | insulin and Ki-67 staining (proliferation in beta cells) [6]: co-localization of the two markers | islet viability [7]: 96±3.3% | insulin release at basal glucose versus control (in words) ([8]; 3.3 mM glucose): slight increase; also recorded: did not cause a relevant difference | insulin release at basal glucose ([8]; 3.3 mM glucose, 1 hr, after 48 hrs exposure, n=5): 2.3 ± 0.5 ng/mL | insulin release upon glucose stimulation compared to control (in words) ([8]; 16.7 mM glucose): more than double; also recorded: increased | insulin release at high glucose ([8]; 16.7 mM glucose, after 48 hrs exposure, n=5): 8.2 ± 0.2 ng/mL | insulin release at high glucose relative to basal glucose ([8]; 16.7 mM vs 3.3 mM glucose): 3.6 fold | animals cured (stable normoglycemia) ([9]; 300 IEQ islets pretreated with JI-36 10^−6 M 48 hrs, day 25): 5 of 6 and 5 out of 6 | graft integration (insulin immunostaining) ([9]; day 27 after transplantation): stable graft integration | blood glucose control after transplantation versus untreated islets (in words) ([9]; islets pretreated with JI-36): consistently performed better; also recorded: rapid and persistent recovery from diabetes; also recorded: earlier and more consistently | animals with partial graft function ([9]; islets pretreated with JI-36, day 25): one | time to revert initial hyperglycemia to normal ranges in IPGTT ([10]; day 25): ≤ 2 h | response in IPGTT ([10]; day 25, glucose 3 g/kg i.p.): comparable to that of normal healthy mice

rat GHRH: rat growth hormone-releasing hormone, cited cardioprotection study (HADAIFTSSYRRILGQLYARKLLHEIMNRQQGERNQEQRSRFN; Somatoliberin; UniProt P09916 31-73, looked up)
survival of cardiomyocytes [11]: promoted survival | protection from ischemia-reperfusion injury [12]: protected
